Measurements taken from article PMC7932029 (Journal of natural products, 2020).
pKi: −log10 of the molar value. Structures can show the parent of a compound that is named as a salt.

Assays:
[1] = Partition coefficients of akuamma alkaloids in CCS solvent systems; type: physicochemical; conditions: for Kacid: 10 mM HCl; for Kbase: 10 mM TEA
[2] = biological target: T1, μOR (Homo sapiens, UniProt P35372); experiment: PDSP primary radioligand displacement screen, μOR; type: binding; conditions: 10 μM
T1 sequence (P35372 whole entry): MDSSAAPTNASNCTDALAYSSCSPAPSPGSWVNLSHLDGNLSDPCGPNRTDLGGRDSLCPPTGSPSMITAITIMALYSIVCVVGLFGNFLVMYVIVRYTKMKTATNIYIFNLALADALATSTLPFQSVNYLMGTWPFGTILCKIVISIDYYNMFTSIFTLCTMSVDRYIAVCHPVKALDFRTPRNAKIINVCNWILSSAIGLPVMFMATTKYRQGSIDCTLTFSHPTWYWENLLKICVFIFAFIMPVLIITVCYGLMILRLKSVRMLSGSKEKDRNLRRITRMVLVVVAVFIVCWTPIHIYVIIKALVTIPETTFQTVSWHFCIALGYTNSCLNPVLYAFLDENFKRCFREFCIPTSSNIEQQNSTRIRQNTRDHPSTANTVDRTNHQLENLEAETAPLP

[3] = biological target: T2, κOR (Homo sapiens, UniProt P41145); experiment: PDSP secondary binding assay, κOR
T2 sequence (P41145 whole entry): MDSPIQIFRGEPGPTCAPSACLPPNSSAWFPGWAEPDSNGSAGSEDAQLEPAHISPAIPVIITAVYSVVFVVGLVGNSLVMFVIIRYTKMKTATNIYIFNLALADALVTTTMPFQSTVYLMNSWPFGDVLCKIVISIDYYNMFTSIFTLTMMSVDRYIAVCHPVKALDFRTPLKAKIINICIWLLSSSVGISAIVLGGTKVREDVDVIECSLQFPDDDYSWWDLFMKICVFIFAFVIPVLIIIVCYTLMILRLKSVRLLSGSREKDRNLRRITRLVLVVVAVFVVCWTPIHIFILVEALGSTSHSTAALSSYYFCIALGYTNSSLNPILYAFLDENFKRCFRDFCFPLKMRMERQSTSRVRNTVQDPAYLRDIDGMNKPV

[4] = biological target: T2, κOR; type: binding
[5] = biological target: HA-mouse μOR (Mus musculus, UniProt P42866); experiment: GloSensor cAMP inhibition assay, μOR; type: cell-based; conditions: efficacy normalized to positive control DAMGO
Sequence of HA-mouse μOR (P42866 whole entry): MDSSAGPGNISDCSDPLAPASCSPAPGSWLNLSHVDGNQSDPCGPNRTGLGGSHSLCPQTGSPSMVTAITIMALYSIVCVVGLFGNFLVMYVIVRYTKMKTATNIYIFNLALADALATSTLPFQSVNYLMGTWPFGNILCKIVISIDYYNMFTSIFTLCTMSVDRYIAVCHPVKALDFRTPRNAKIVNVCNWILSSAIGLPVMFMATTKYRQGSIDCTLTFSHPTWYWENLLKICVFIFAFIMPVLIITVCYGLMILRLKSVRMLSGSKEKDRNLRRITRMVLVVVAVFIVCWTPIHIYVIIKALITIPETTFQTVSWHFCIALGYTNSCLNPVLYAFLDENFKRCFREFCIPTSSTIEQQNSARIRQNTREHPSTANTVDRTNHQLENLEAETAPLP

[6] = biological target: FLAG-mouse κOR (Mus musculus, UniProt P33534); type: cell-based
Sequence of FLAG-mouse κOR (P33534 whole entry): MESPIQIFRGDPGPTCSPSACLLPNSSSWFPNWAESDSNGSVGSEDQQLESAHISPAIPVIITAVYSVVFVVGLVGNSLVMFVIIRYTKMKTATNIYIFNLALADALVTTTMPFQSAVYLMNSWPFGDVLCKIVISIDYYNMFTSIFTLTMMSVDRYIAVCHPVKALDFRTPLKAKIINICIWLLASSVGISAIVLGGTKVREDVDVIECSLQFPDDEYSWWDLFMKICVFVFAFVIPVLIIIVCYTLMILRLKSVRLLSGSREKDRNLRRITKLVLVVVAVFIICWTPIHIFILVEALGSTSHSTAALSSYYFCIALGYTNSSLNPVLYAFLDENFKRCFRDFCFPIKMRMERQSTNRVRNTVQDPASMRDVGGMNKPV

[7] = biological target: T2, κOR; type: cell-based
[8] = system: C57BL/6 mice; experiment: Tail flick thermal nociception assay; type: in vivo, mouse
[9] = system: C57BL/6 mice; experiment: Hot plate thermal nociception assay; type: in vivo, mouse
[10] = system: Wistar rats; conditions: p.o., cited from earlier work
[11] = biological target: T1, μOR; experiment: PathHunter β-arrestin 2 recruitment assay, μOR
[12] = biological target: human δOR (Homo sapiens, UniProt P41143); experiment: PathHunter β-arrestin 2 recruitment assay, δOR; conditions: highest concentration tested, in words
Sequence of human δOR (P41143 whole entry): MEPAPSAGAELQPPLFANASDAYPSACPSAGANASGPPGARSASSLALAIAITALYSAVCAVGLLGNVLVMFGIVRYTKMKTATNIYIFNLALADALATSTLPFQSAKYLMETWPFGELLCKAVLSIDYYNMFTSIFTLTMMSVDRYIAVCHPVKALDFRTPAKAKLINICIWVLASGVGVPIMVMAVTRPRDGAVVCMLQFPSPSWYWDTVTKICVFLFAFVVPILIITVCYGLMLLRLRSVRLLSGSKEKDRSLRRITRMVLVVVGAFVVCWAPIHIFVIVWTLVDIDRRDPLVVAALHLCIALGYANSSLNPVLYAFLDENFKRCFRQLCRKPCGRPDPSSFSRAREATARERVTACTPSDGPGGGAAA

[13] = biological target: FLAG-mouse δOR (Mus musculus, UniProt P32300); experiment: GloSensor cAMP inhibition assay, δOR; type: cell-based; conditions: efficacy normalized to positive control Leu-Enk
Sequence of FLAG-mouse δOR (P32300 whole entry): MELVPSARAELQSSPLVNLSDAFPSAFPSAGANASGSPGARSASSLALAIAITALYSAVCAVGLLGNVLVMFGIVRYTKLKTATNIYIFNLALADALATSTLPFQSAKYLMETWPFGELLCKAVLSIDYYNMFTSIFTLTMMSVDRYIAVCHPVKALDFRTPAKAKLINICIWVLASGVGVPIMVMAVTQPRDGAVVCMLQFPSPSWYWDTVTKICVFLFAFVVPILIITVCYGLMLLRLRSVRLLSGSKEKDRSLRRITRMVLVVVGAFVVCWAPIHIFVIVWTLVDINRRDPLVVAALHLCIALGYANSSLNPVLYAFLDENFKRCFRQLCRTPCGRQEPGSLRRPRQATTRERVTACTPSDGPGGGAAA

[14] = 5 mg/kg p.o., any of the timepoints tested

Row | Structure (SMILES) | Kacid ([1]; 1:1:1:1 Hex/EtOAc/MeOH/H2O) | Kbase ([1]; 1:1:1:1 Hex/EtOAc/MeOH/H2O) | Kacid ([1]; 1:1 EtOAc/H2O) | Kbase ([1]; 1:1 EtOAc/H2O) | Kacid ([1]; 2:2:3 MTBE/CH3CN/H2O) | Kbase ([1]; 2:2:3 MTBE/CH3CN/H2O) | Kacid ([1]; 3:1.5:4 MTBE/CH3CN/H2O) | Kbase ([1]; 3:1.5:4 MTBE/CH3CN/H2O) | Kacid ([1]; 3:7:3:7 Hex/EtOAc/MeOH/H2O) | Kbase ([1]; 3:7:3:7 Hex/EtOAc/MeOH/H2O) | displacement of [3H]-DAMGO [2] | Binding pKi [4] | cAMP α [5] | other results
1 | C/C=C1/CN2CC[C@]34C(=Nc5ccccc53)[C@@H]2C[C@@H]1[C@@]4(COC(C)=O)C(=O)OC [Compound 5, akuammiline] | <<0.01 | 0.23 | 0.03 | 28.2 | 0.27 | 5.61 | 0.05 | 6.82 | <<0.01 | 2.53 | significantly less displacement | −6.0 ± 0.1 (3) | – | pKi [3]: 6.40
2 | C/C=C1/CN2CC[C@@]34c5ccccc5N(C)[C@]35OC[C@@]4(C(=O)OC)[C@H]1C[C@H]25 [Compound 3, pseudo-akuammigine] | <<0.01 | 2.71 | 0.10 | 51.9 | – | 87.0 | 0.25 | 30.9 | <<0.01 | 32.3 | displaced | – | 82 ± 7 | cAMP α [6]: 69 ± 8; β-arrestin 2 α [7]: 20 ± 20; antinociception [8, 14]: did not produce antinociception; antinociception ([8]; 5 mg/kg s.c., 30 minutes): minimal yet statistically significant antinociception; antinociception ([8]; 5 mg/kg s.c., 60 minutes): minimal yet statistically significant antinociception; antinociception ([8]; 10 mg/kg s.c., 30 minutes): failed to produce antinociception; antinociception [9, 14]: did not produce antinociception; antinociception ([9]; 5 mg/kg s.c., 30 minutes): minimal yet statistically significant antinociception; antinociception ([9]; 10 mg/kg s.c., 30 minutes): failed to produce antinociception; antinociception ([10]; Wistar rats, 5 mg/kg): antinociceptive; time of peak antinociceptive activity ([10]; rats): 180 min
3 | C[C@@H](NC(=O)[C@@H](N)Cc1ccc(O)cc1)C(=O)NCC(=O)N(C)[C@@H](Cc1ccccc1)C(=O)NCCO [DAMGO, (2S)-2-[[2-[[(2R)-2-[[(2S)-2-Amino-3-(4-hydroxyphenyl)propanoyl]amino]propanoyl]amino]acetyl]-methylamino]-N-(2-hydroxyethyl)-3-phenylpropanamide, reference compound] | – | – | – | – | – | – | – | – | – | – | – | – | 100 | β-arrestin 2 α ([11]; efficacy normalized to positive control DAMGO): 100
4 | CN1CC[C@]23c4c5ccc(O)c4O[C@H]2[C@@H](O)C=C[C@H]3[C@H]1C5 [morphine, morphine sulfate pentahydrate, reference compound] | – | – | – | – | – | – | – | – | – | – | – | – | – | antinociception ([8]; 6 mg/kg s.c., 30 min): significant antinociception; antinociception ([9]; 6 mg/kg s.c., 30 min): significant antinociception
5 | C/C=C1/CN2[C@H]3Cc4c([nH]c5ccccc45)[C@@H]2C[C@@H]1[C@]3(CO)C(=O)OC [Compound 2, akuammidine] | – | – | – | – | – | – | – | – | – | – | – | −4.8 ± 0.1 (3) | – | antinociception ([8]; 10 mg/kg s.c., 50 minutes): minimal yet statistically significant antinociception; antinociception ([8]; 30 mg/kg s.c., 30 minutes): minimal yet statistically significant antinociception; antinociception ([8]; oral dosing, data not shown): no antinociception was measurable; antinociception ([9]; 3 mg/kg s.c., 110 minutes): minimal, yet statistically significant, antinociception; antinociception ([9]; oral dosing, data not shown): no antinociception was measurable; β-arrestin 2 recruitment ([11]; highest concentration tested, in words): minimal recruitment; β-arrestin recruitment [12]: minimal recruitment
6 | C/C=C1/CN2CC[C@]34C(=C(C(=O)OC)[C@H]1C[C@H]23)Nc1ccccc14 [Compound 4, akuammicine] | <<0.01 | 1.63 | 0.02 | 222 | 0.61 | 27.7 | 0.14 | 64.1 | <<0.01 | 28.9 | displaced | −7.1 ± 0.1 (3) | – | pKi [3]: 6.77
7 | C/C=C1/CN2[C@@H]3C[C@@]45c6ccccc6N[C@]4(O3)[C@@H]2C[C@@H]1[C@@]5(COC(C)=O)C(=O)OC [Compound 6, picraline] | <<0.01 | 0.82 | 0.03 | 16.09 | 0.56 | 11.4 | 0.10 | 17.4 | 0.01 | 7.29 | significantly less displacement | – | – | –
8 | C/C=C1/CN2CC[C@@]34c5cc(O)ccc5N(C)[C@]35OC[C@@]4(C(=O)OC)[C@H]1C[C@H]25 [Compound 1, akuammine] | – | – | – | – | – | – | – | – | – | – | displaced | – | 62 ± 6 | cAMP inhibition [6]: did not inhibit cAMP production; cAMP α [13]: 50 ± 35; β-arrestin 2 α [7]: 35 ± 6; antinociception ([8]; 3 mg/kg s.c., 110 minutes): minimal yet statistically significant antinociception; antinociception ([8]; 60 mg/kg s.c., 30 minutes): minimal yet statistically significant antinociception; antinociception ([8]; oral dosing, data not shown): no antinociception was measurable; antinociception ([9]; 3 mg/kg s.c., 110 minutes): minimal yet statistically significant antinociception; antinociception ([9]; 30 mg/kg s.c., 60 minutes): minimal yet statistically significant antinociception; antinociception ([9]; 60 mg/kg s.c., 30 minutes): minimal yet statistically significant antinociception; antinociception ([9]; oral dosing, data not shown): no antinociception was measurable
